Earlier results on 1 compound are cited in US20230391768A2, “IMIDAZOPYRIDINE DERIVATIVES AND AZA-IMIDAZOPYRIDINE DERIVATIVES AS JANUS KINASE 2 INHIBITORS AND USES THEREOF” (Dana-Farber Cancer Institute, Inc., priority 2018, published 2023).

A word on the IC50: it is the point on the concentration scale where inhibition reaches its midpoint.

In the data set the test system is cell lines or patient-derived xenografts from patients with CRLF2-rearranged B-ALL. The settings on record: cited from earlier work.

`N#CC[C@H](C1CCCC1)n1cc(-c2ncnc3[nH]ccc23)cn1` [Ruxolitinib]: the IC50 is greater than 20 µM.
